According to ChEMBL document CHEMBL5376005, “Gut Metabolite Indoxyl Sulfate Has Selective Deleterious and Anticancer Effect on Colon Cancer Cells” (J Med Chem, 2023):
Counter-ions that a name gives are not always drawn. The source made the active and inactive calls. The rule behind the calls is not given here.

Columns and labels:
[1] = tested on: HCT-116; test: Induction of cell cycle arrest in human HCT-116 cells assessed as increase in proportion of cells at G2/M phase at 5 mM incubated for 48 hrs by RNase A/Triton X-100/PI staining based flow cytometry analysis relative to control; format: functional
[2] = tested on: HCT-116; test: Induction of cell cycle arrest in human HCT-116 cells assessed as increase in proportion of cells at G2/M phase at 10 mM incubated for 48 hrs by RNase A/Triton X-100/PI staining based flow cytometry analysis relative to control; format: functional
[3] = tested on: HT-29; test: Induction of DNA damage in human HT-29 cells by comet assay; format: functional, cell-based
[4] = tested on: HT-29; test: Cytotoxicity against human HT-29 cells assessed as cell viability at 10 mM measured after 72 hrs by MTT assay (reference value: 100%); format: functional; settings: HT-29, 72 h, read-out: Activity
[5] = tested on: HCT-116; test: Induction of apoptosis in human HCT-116 cells assessed as increase in apoptotic cells at 10 mM incubated for 48 hrs by annexin V-FITC/PI staining based flow cytometry analysis (reference value: 3%); format: functional
[6] = Toxicity in wild type BALB/c mouse assessed as inflammatory symptoms by measuring change in TNFalpha level at 100 mM, ip measured for 0 to 3 months by ELISA; format: organism-based; settings: in vivo, 100000 µM, time 0-3 months
[7] = Toxicity in wild type BALB/c mouse assessed as histological change in rectum at 100 mM, ip measured after 12 weeks by H and E staining based light microscopic analysis; format: organism-based; settings: in vivo, 2016 h, 100000 µM
[8] = Toxicity in wild type BALB/c mouse assessed as inflammatory symptoms by measuring change in fecal consistency at 100 mM, ip measured after 12 weeks; format: organism-based; settings: in vivo, 2016 h, 100000 µM
[9] = tested on: HT-29; test: Induction of morphological changes in human HT-29 cells assessed as appearance of rounded morphology at 1.25 to 10 mM incubated for 24 to 72 hrs by bright field microscopy analysis; format: functional, cell-based; settings: dose 1.25-10 mM, time 24-72 hrs
[10] = Toxicity in wild type BALB/c mouse assessed as histological change in colon at 100 mM, ip measured after 12 weeks by H and E staining based light microscopic analysis; format: organism-based; settings: in vivo, 2016 h, 100000 µM
[11] = tested on: HT-29; test: Cytotoxicity against human HT-29 cells assessed as cell viability at 10 mM measured after 24 hrs by MTT assay (reference value: 100%); format: functional; settings: HT-29, 24 h, read-out: Activity
[12] = tested on: HT-29; test: Induction of cell cycle arrest in human HT-29 cells assessed as increase in proportion of cells at G2/M phase at 5 mM incubated for 48 hrs by RNase A/Triton X-100/PI staining based flow cytometry analysis relative to control; format: functional
[13] = tested on: HCT-116; test: Induction of morphological changes in human HCT-116 cells assessed as detachment from substrate at 1.25 to 10 mM incubated for 24 to 72 hrs by bright field microscopy analysis; format: functional, cell-based; settings: dose 1.25-10 mM, time 24-72 hrs
[14] = tested on: HCT-116; test: Induction of ROS production in human HCT-116 cells incubated for 48 hrs by DHE staining based analysis; format: functional, cell-based
[15] = tested on: HT-29; test: Cytotoxicity against human HT-29 cells assessed as cell viability at 10 mM measured after 72 hrs by CellTiter-Glo luminescent cell viability assay (reference value: 100%); format: functional; settings: HT-29, 72 h, read-out: Activity
[16] = tested on: HCT-116; test: Cytotoxicity against human HCT-116 cells assessed as reduction in cell viability at 0.01 to 10 mM by CellTiter-Glo luminescent cell viability assay; format: functional, cell-based; settings: dose 0.01-10 mM, time 48-72 hrs, TDE = time-dependent effect
[17] = tested on: HT-29; test: Induction of cell cycle arrest in human HT-29 cells assessed as increase in proportion of cells at G2/M phase at 10 mM incubated for 48 hrs by RNase A/Triton X-100/PI staining based flow cytometry analysis relative to control; format: functional
[18] = tested on: HT-29; test: Cytotoxicity against human HT-29 cells assessed as reduction in colony formation pretreated for 48 hrs and further incubated for 10 days with media replacement for every alternate day; format: functional, cell-based; settings: dose 1.25-10 mM
[19] = tested on: HCT-116; test: Cytotoxicity against human HCT-116 cells assessed as cell viability at 10 mM measured after 48 hrs by MTT assay (reference value: 100%); format: functional; settings: HCT-116, 48 h, read-out: Activity
[20] = tested on: HCT-116; test: Cytotoxicity against human HCT-116 cells assessed as cell viability at 10 mM measured after 72 hrs by MTT assay (reference value: 100%); format: functional; settings: HCT-116, 72 h, read-out: Activity
[21] = tested on: HT-29; test: Induction of apoptosis in human HT-29 cells assessed as increase in apoptotic cells at 5 mM incubated for 48 hrs by annexin V-FITC/PI staining based flow cytometry analysis (reference value: 3%); format: functional
[22] = Toxicity in wild type BALB/c mouse assessed as histological change in rectum at 100 mM, REC measured after 12 weeks by H and E staining based light microscopic analysis; settings: in vivo, other, 2016 h, 100000 µM
[23] = Toxicity in wild type BALB/c mouse assessed as inflammatory symptoms by measuring change in IL-17 level at 100 mM, REC measured for 0 to 3 months by ELISA; settings: in vivo, other, 100000 µM, time 0-3 months
[24] = tested on: HT-29; test: Cytotoxicity against human HT-29 cells assessed as reduction in cell viability measured after 24 to 72 hrs by MTT assay; format: functional, cell-based; settings: dose 0.01-10 mM, time 24-72 hrs
[25] = Toxicity in wild type BALB/c mouse assessed as change in spleen length at 100 mM, REC measured after 12 weeks; settings: in vivo, other, 2016 h, 100000 µM
[26] = Toxicity in wild type BALB/c mouse assessed as histological change in colon at 100 mM, REC measured after 12 weeks by H and E staining based light microscopic analysis; format: tissue-based; settings: in vivo, other, 2016 h, 100000 µM
[27] = tested on: HCT-116; test: Cytotoxicity against human HCT-116 cells assessed as reduction in cell viability measured after 48 to 72 hrs by CellTiter-Glo luminescent cell viability assay; format: functional, cell-based; settings: dose 0.01-10 mM, time 48-72 hrs
[28] = tested on: HT-29; test: Cytotoxicity against human HT-29 cells assessed as reduction in cell viability at 0.01 to 10 mM by CellTiter-Glo luminescent cell viability assay; format: functional, cell-based; settings: dose 0.01-10 mM, time 48-72 hrs, TDE = time-dependent effect
[29] = Toxicity in wild type BALB/c mouse assessed as change in intestinal length at 100 mM, REC measured after 12 weeks; format: tissue-based, Intestine; settings: in vivo, other, 2016 h, 100000 µM
[30] = tested on: HT-29; test: Induction of morphological changes in human HT-29 cells assessed as reduction in cell number at 1.25 to 10 mM incubated for 24 to 72 hrs by bright field microscopy analysis; format: functional, cell-based; settings: dose 1.25-10 mM, time 24-72 hrs
[31] = Toxicity in wild type BALB/c mouse assessed as inflammatory symptoms by measuring change in TNFalpha level at 100 mM, REC measured for 0 to 3 months by ELISA; settings: in vivo, other, 100000 µM, time 0-3 months

Structure (SMILES): O=S(=O)(O)Oc1c[nH]c2ccccc12 [INDOXYL SULFATE]
- Activity [1]: 18.1%
- Activity [2]: 22.7%
- Activity [3]: inactive
- viability at 10000 µM [4]: 17%
- Activity [5]: 13%
- Activity [6]: Non-Toxic
- Activity [7]: Non-Toxic
- Activity [8]: Non-Toxic
- Activity [9]: Active
- Activity [10]: Non-Toxic
- viability at 10000 µM [11]: 41%
- Activity [12]: 14.2%
- Activity [13]: Active
- Activity [14]: inactive
- viability at 10000 µM [15]: 19%
- Activity [16]: Tde
- Activity [17]: 17.3%
- Activity [18]: Dose-Dependent Effect
- viability at 10000 µM [19]: 7%
- viability at 10000 µM [20]: 4%
- Activity [21]: 8%
- Activity [22]: Non-Toxic
- Activity [23]: Non-Toxic
- Activity [24]: Dose-Dependent Effect
- Activity [25]: Non-Toxic
- Activity [26]: Non-Toxic
- Activity [27]: Dose-Dependent Effect
- Activity [28]: Tde
- Activity [29]: Non-Toxic
- Activity [30]: Active
- Activity [31]: Non-Toxic
